This note sets out measurements from ChEMBL document CHEMBL1201862, “PubChem BioAssay data set” (2004).

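Where inhibition never reached the appropriate level, the endpoint shown equals the highest concentration tested. Otherwise, values were interpolated linearly from a five-concentration, 48-hour dose response in 96-well plates. GI50: concentration for 50% inhibition of growth.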 Activity calls are given as the source filed them. No stated cut-off is given here; in the data, active = GI50 up to about 1.1 µM and inactive = higher. A value given as a limit tells only on which side of the number the result lay.

Some test systems named below: A549; CAKI-1; CCRF-CEM; EKVX; HCT-116; HOP-92; M14; MDA-N; MOLT-4; Malme-3M; NCI-H522; NCI/ADR-RES; OVCAR-3; OVCAR-4; SF-268; SF-539; SN12C; SNB-75; UACC-62.
Experiment in all cases: NCI-60 cell line screen, 48 h

As to `O=C1C[C@H](Sc2ccccc2)C2(OCCO2)[C@H]2ON3CCC[C@@H]3[C@@H]12`, the GI50 in the assay on A549 is 2.89 µM (inactive); in the assay with CAKI-1, 2.29 µM (inactive); with CCRF-CEM it was 0.127 µM (active); in the assay on EKVX it was 2.53 µM (inactive); with HCT-116, 0.841 µM (active); with HOP-92, 1.24 µM (inactive). The GI50 is 2.26 µM (inactive) in the assay on M14; 3.05 µM (inactive) with MDA-N; 0.333 µM (active) in the assay with MOLT-4; 1.73 µM (inactive) with Malme-3M; 0.321 µM (active) with NCI-H522; 4.61 µM (inactive) in the assay with NCI/ADR-RES. For the same molecule, the GI50 was 0.904 µM (active) in the assay with OVCAR-3; 2.57 µM (inactive) in the assay with OVCAR-4; 1.65 µM (inactive) in the assay on SF-268; 1.2 µM (inactive) with SF-539; 1.69 µM (inactive) in the assay on SN12C; 3.66 µM (inactive) with SNB-75. The GI50 in the assay on UACC-62 was 1.73 µM (inactive).

Consider `CO/C(N)=C(C#N)/N=C/c1ccccc1`, for which the GI50 was > 100 µM (inactive) in the assay with A549; > 100 µM (inactive) in the assay with CAKI-1; 50 µM (inactive) in the assay with CCRF-CEM; 66.7 µM (inactive) with EKVX; > 100 µM (inactive) in the assay with HCT-116; > 100 µM (inactive) in the assay on HOP-92. The GI50 with M14 was 79.6 µM (inactive); in the assay on MDA-N it was > 100 µM (inactive); with MOLT-4, > 100 µM (inactive); in the assay with Malme-3M, 40.3 µM (inactive); with NCI-H522, > 100 µM (inactive); with NCI/ADR-RES, > 100 µM (inactive). In addition, the GI50 is > 100 µM (inactive) with OVCAR-3; 71 µM (inactive) with OVCAR-4; > 100 µM (inactive) in the assay on SF-268; > 100 µM (inactive) in the assay on SF-539; > 100 µM (inactive) in the assay with SN12C; > 100 µM (inactive) with SNB-75. Moreover, the GI50 in the assay on UACC-62 was 48 µM (inactive).

Consider `CCOc1cc2c(OCc3ccccc3)cc3c4cc(OC)c(OC)cc4c[n+](C)c3c2cc1OC`, for which the GI50 in the assay with A549 is 4.82 µM (inactive); in the assay with CAKI-1, 25.4 µM (inactive); in the assay with CCRF-CEM, 0.494 µM (active); with EKVX, 17.8 µM (inactive); in the assay with HCT-116 it was 1.56 µM (inactive); in the assay with HOP-92, 0.361 µM (active). Further, the GI50 in the assay on M14 is 2.03 µM (inactive); in the assay on MDA-N it was 0.857 µM (active); in the assay on MOLT-4 it was 0.818 µM (active); in the assay on Malme-3M, 0.986 µM (active); in the assay on NCI-H522, 0.391 µM (active); with NCI/ADR-RES, > 100 µM (inactive). Further, the GI50 is 1.06 µM (active) with OVCAR-3; 2.04 µM (inactive) in the assay on OVCAR-4; 0.492 µM (active) with SF-268; 1.3 µM (inactive) in the assay with SF-539; 0.471 µM (active) with SN12C; 0.442 µM (active) with SNB-75. The GI50 with UACC-62 is 1.27 µM (inactive).

For `COc1cc2c(cc1OC)C13CC[N+]4(C)CC5=CCOC6CC(=O)N2C1C6C5CC34[O-]` (centres undefined), the GI50 in the assay on A549, in the assay with CAKI-1, with CCRF-CEM, in the assay on EKVX, in the assay on HCT-116 and in the assay with HOP-92 was > 100 µM (inactive) each time. In addition, the GI50 in the assay with M14, with MDA-N, in the assay on MOLT-4, in the assay on Malme-3M, in the assay on NCI-H522 and in the assay on NCI/ADR-RES was > 100 µM (inactive) throughout. Further, the GI50 in the assay with OVCAR-3, in the assay on OVCAR-4, with SF-268, in the assay on SF-539, in the assay with SN12C and in the assay on SNB-75 was > 100 µM (inactive) throughout. Also, the GI50 in the assay with UACC-62 was > 100 µM (inactive).

As to `c1coc(C2=Nc3cccc4cccc(c34)N2)c1`, the GI50 was 60.3 µM (inactive) in the assay with A549; 35.4 µM (inactive) with CAKI-1; 32.1 µM (inactive) with CCRF-CEM; 55.2 µM (inactive) in the assay on EKVX; 23.1 µM (inactive) in the assay on HCT-116; 25.5 µM (inactive) in the assay on HOP-92. In addition, the GI50 was 25.4 µM (inactive) in the assay on M14; 41.1 µM (inactive) in the assay with MDA-N; > 100 µM (inactive) with MOLT-4; 93.8 µM (inactive) in the assay on Malme-3M; 11.2 µM (inactive) in the assay with NCI-H522; 18.7 µM (inactive) with NCI/ADR-RES. For the same molecule, the GI50 with OVCAR-3 is 24.2 µM (inactive); with OVCAR-4, 29.9 µM (inactive); in the assay with SF-268, 68.2 µM (inactive); with SF-539 it was 15 µM (inactive); in the assay with SN12C, 28.4 µM (inactive); with SNB-75, 65.5 µM (inactive). In addition, the GI50 in the assay on UACC-62 was 35.5 µM (inactive).

Regarding `C=C1C(=O)OC2(C)CCC1CC1OC1(C)CCC=C(C)CCC2O` (centres undefined), the GI50 in the assay on A549 is > 100 µM (inactive); in the assay on CAKI-1 it was > 100 µM (inactive); in the assay on CCRF-CEM it was 7.08 µM (inactive); with EKVX, > 100 µM (inactive); in the assay with HCT-116, > 100 µM (inactive); in the assay on HOP-92 it was > 100 µM (inactive). Moreover, the GI50 was > 100 µM (inactive) in the assay on M14; 25.5 µM (inactive) in the assay with MDA-N; 30.3 µM (inactive) with MOLT-4; > 100 µM (inactive) with Malme-3M; 64.7 µM (inactive) with NCI-H522; > 100 µM (inactive) with NCI/ADR-RES. In addition, the GI50 in the assay on OVCAR-3 is > 100 µM (inactive); with OVCAR-4, > 100 µM (inactive); with SF-268 it was > 100 µM (inactive); in the assay with SF-539, 88.3 µM (inactive); with SN12C, 37.1 µM (inactive); in the assay on SNB-75 it was > 100 µM (inactive). Moreover, the GI50 in the assay on UACC-62 is 61.9 µM (inactive).

As to `Cc1ccc(C(CCO)CCO)nc1`, the GI50 in the assay on A549, in the assay with CAKI-1, in the assay on CCRF-CEM, in the assay with EKVX, in the assay on HCT-116 and with HOP-92 was > 100 µM (inactive) in each case. Besides, the GI50 with M14, in the assay with MDA-N, in the assay on MOLT-4, with Malme-3M, in the assay with NCI-H522 and in the assay on NCI/ADR-RES was > 100 µM (inactive) throughout. In addition, the GI50 in the assay with OVCAR-3, in the assay on OVCAR-4, with SF-268, with SF-539, with SN12C and with SNB-75 was > 100 µM (inactive) each time. Also, the GI50 in the assay on UACC-62 was > 100 µM (inactive).

As for `Nc1nc(Cl)cc(NCC2(CO)CC(Cc3ccccc3)C2)n1` (centres undefined), the GI50 is 19.1 µM (inactive) in the assay with A549; > 73.5 µM (inactive) in the assay with CAKI-1; 29.5 µM (inactive) in the assay on CCRF-CEM; 3.35 µM (inactive) with EKVX; 5.81 µM (inactive) in the assay on HCT-116; 36.6 µM (inactive) in the assay on HOP-92. Moreover, the GI50 in the assay with M14 is 16.2 µM (inactive); in the assay with MDA-N it was 25.1 µM (inactive); with MOLT-4, 16.5 µM (inactive); with Malme-3M, 29.4 µM (inactive); in the assay with NCI-H522 it was 36.4 µM (inactive); in the assay with NCI/ADR-RES it was 9.73 µM (inactive). In addition, the GI50 is 51.9 µM (inactive) with OVCAR-3; 24.2 µM (inactive) in the assay on OVCAR-4; 21.6 µM (inactive) in the assay with SF-268; 59.3 µM (inactive) in the assay with SF-539; > 92.3 µM (inactive) in the assay on SN12C; 28.6 µM (inactive) in the assay on SNB-75. Also, the GI50 with UACC-62 is 27.5 µM (inactive).

Take `O=C1/C(=N\NC(=S)NC2CCCCC2)c2cc([N+](=O)[O-])ccc2N1CN1CCOCC1`: the GI50 in the assay with A549 is 4.05 µM (inactive); with CAKI-1, 3.3 µM (inactive); in the assay with CCRF-CEM, 0.382 µM (active); in the assay on EKVX it was 3.13 µM (inactive); with HCT-116, 3.57 µM (inactive); in the assay on HOP-92, 1.96 µM (inactive). The GI50 is 9.53 µM (inactive) in the assay on M14; 6.08 µM (inactive) with MDA-N; 1.71 µM (inactive) with MOLT-4; 11.4 µM (inactive) with Malme-3M; 10 µM (inactive) in the assay on NCI-H522; 3.26 µM (inactive) in the assay with NCI/ADR-RES. Also, the GI50 in the assay with OVCAR-3 was 5.86 µM (inactive); in the assay on OVCAR-4, 4.62 µM (inactive); in the assay on SF-268 it was 4.35 µM (inactive); in the assay with SF-539 it was 11.4 µM (inactive); in the assay on SN12C it was 3.72 µM (inactive); with SNB-75, 11.5 µM (inactive). Moreover, in the assay on UACC-62, the GI50 is 7.89 µM (inactive).

Turning to `O=[N+]([O-])c1ccc(-n2nc3ccc4nonc4c3n2)cc1`, the GI50 was 72.1 µM (inactive) in the assay on A549; 22.7 µM (inactive) in the assay on CAKI-1; > 100 µM (inactive) in the assay on CCRF-CEM; 58.3 µM (inactive) with EKVX; 74.6 µM (inactive) in the assay on HCT-116; 19.6 µM (inactive) in the assay with HOP-92. Also, the GI50 is 52.1 µM (inactive) with M14; > 100 µM (inactive) with MDA-N; > 100 µM (inactive) in the assay on MOLT-4; 24.2 µM (inactive) in the assay on Malme-3M; 28.8 µM (inactive) in the assay on NCI-H522; 56.1 µM (inactive) with NCI/ADR-RES. Further, the GI50 was 71.4 µM (inactive) in the assay on OVCAR-3; 9.08 µM (inactive) in the assay with OVCAR-4; 34.3 µM (inactive) in the assay on SF-268; 44.8 µM (inactive) in the assay with SF-539; > 100 µM (inactive) in the assay with SN12C; 11.1 µM (inactive) with SNB-75. Further, the GI50 in the assay on UACC-62 is 32.5 µM (inactive).

Consider `C=CCC(CC=O)(C(=O)OCC)C(=O)OCC`, for which the GI50 in the assay with A549, in the assay with CAKI-1, with CCRF-CEM, with EKVX, in the assay on HCT-116 and in the assay on HOP-92 was > 100 µM (inactive) each time. Besides, the GI50 in the assay on M14, in the assay on MDA-N, in the assay with MOLT-4, in the assay on Malme-3M, in the assay on NCI-H522 and with NCI/ADR-RES was > 100 µM (inactive) throughout. In addition, the GI50 in the assay with OVCAR-3, in the assay with OVCAR-4, in the assay with SF-268, in the assay with SF-539, with SN12C and in the assay on SNB-75 was > 100 µM (inactive) throughout. The GI50 in the assay with UACC-62 was > 100 µM (inactive).
